The test system of series [1] is isolated guinea-pig ileum. The experiment in a line: opioid activity in the electrically stimulated guinea-pig ileum preparation. The note with it: for rel. value Der. = 100 / rel. value Nor. = 100: relative potency; for rel. value Der. = 100: dermorphin IC50 = 100%; for rel. value Nor. = 100: normorphine IC50 = 100%. Type of series: cell-based. The text has this: As biological test system for determination of the opioid activity the ileum preparation of the guinea-pig was used (detailed description German application No. 29 21 216, p. 24). […] In addition for a better understanding the IC50 -value can be expressed as 100% for the opiates normorphine and dermorphin (DT-OS No. 30 34 897) and the relative activity of the single substances can be given in comparison to normorphine or dermorphine. The indication of the relative potency has the advantage that by this variations of the sensitivity of the assay are neutralized.
The (*) marked values of table 1 correspond to those which have been described by Castiglione et al. (Peptides, 2, p. 266, table 1, substances 1 and 3: column GPI=guinea-pig ileum preparation).
IC50 -values (nM), see description, of two peptides of the invention (III an IV) in comparison to those of the prior art (dermorphin,I,II) as measured in the isolated guinea-pig ileum. […] The inhibiting effect of the substances I, II, III, and IV was antagonized by addition of the specific opiate antagonist naloxone (final concentration in the organ bath 900 nM); upon further addition of the substances I to IV to the organ bath (in presence of naloxone) no further inhibition could be observed; the inhibiting effect of the substances I-IV has therefore to be considered as specific opiate-like.

Series [2] concerns the target T1, α-chymotrypsin (Bos taurus, UniProt P00766, DEL14-15/DEL147-148).
T1 construct: purchased Serva, Heidelberg
Briefly: enzymatic stability against α-chymotrypsin, remaining activity assayed on guinea-pig ileum. Type of series: in vitro ADME. The settings on record: 1 mg peptide, 50 μg α-chymotrypsin, Krebs-Ringer solution, 5 hours at 37° C. The protocol:
1 mg of each of the peptides dermorphin, I, II, III and IV (table 1) were dissolved in 1 ml freshly prepared Krebs-Ringer solution and mixed together with 50 μg α-chymotrypsin (Serva, Heidelberg, dissolved in 50 μl Krebs-Ringer solution); immediately after mixing, a 100 μl aliquot was removed and heated up to 95° C. for 15 minutes. (The heating was employed in order to inactivate the enzyme). This aliquot removed, will be later used for reference as initial value (Zero-value of incubation time). The remaining 950 μl of the peptide/enzyme mixture were incubated for 5 hours at 37° C.; the incubation period was also terminated by heating up to 95° C.
After centrifugation identical aliquots of the supernatants were assayed quantitatively for their opiate-like effect and compared with the zero-value; and guinea-pig ileum was also used as assay system (as above described).

The subject of series [3] is isolated guinea-pig ileum. The settings on record: * marked, from Castiglione et al., Peptides 2, p. 266, read-out: IC50 (* values described by Castiglione et al.); cited from earlier work.

Entries after “also recorded” stand apart in the source; their conditions may differ. Read-outs that look alike come from different tables or passages of the source. Non-standard residues stand in square brackets, D forms with d. Residues, ends and D or L forms follow the SMILES beside them.

With `C[C@@H](NC(=O)[C@@H](N)Cc1ccc(O)cc1)C(=O)N[C@@H](Cc1ccccc1)C(=O)NCC(=O)N[C@@H](Cc1ccc(O)cc1)C(=O)N1CCC[C@H]1C(=O)N[C@@H](CO)C(N)=O` [Dermorphin], in series [1], the “rel. value Der. = 100” value is 100 and the “rel. value Nor. = 100” value was determined as 3143. Also, in series [2], the “opiate-like activity remaining after incubation with α-chymotrypsin compared to zero-value” is “nearly fully destroyed”. Further, the IC50 in series [3] is 3.5 nM. On to `Oc1ccc2c3c1O[C@H]1[C@@H](O)C=C[C@H]4[C@@H](C2)NCC[C@@]341` [Normorphine], for which the IC50 in series [1] (Cavia porcellus, isolated guinea-pig ileum, 7 experiments, read-out: IC50 (inhibition of electrically induced contractions by 50%)) came to 110 nM. In series [1], the “rel. value Der. = 100” value came to 3.2 and the “rel. value Nor. = 100” value amounted to 100. Turning to `C[C@@H](NC(=O)[C@@H](N)Cc1ccc(O)cc1)C(=O)N[C@@H](Cc1ccccc1)C(=O)N1CCC[C@H]1C(=O)N[C@@H](Cc1ccc(O)cc1)C(N)=O` [Substance I, Tyr--D-Ala--Phe--Pro--Tyr--NH2] (H-Y[dA]FPY-NH2), in series [2], the “opiate-like activity remaining after incubation with α-chymotrypsin compared to zero-value” was “higher stability than substance II”. Regarding `C[C@@H](NC(=O)[C@@H](N)Cc1ccc(O)cc1)C(=O)N[C@@H](Cc1ccccc1)C(=O)NCC(=O)N[C@@H](Cc1ccc(O)cc1)C(N)=O` [Substance II, Tyr--D-Ala--Phe--Gly--Tyr--NH2] (H-Y[dA]FGY-NH2), the “opiate-like activity remaining after incubation with α-chymotrypsin compared to zero-value” in series [2] is reported as “nearly fully destroyed”. On to `C[C@@H](NC(=O)[C@H](Cc1ccccc1)NC(=O)[C@@H](C)NC(=O)[C@@H](N)Cc1ccc(O)cc1)C(=O)N[C@@H](Cc1ccc(O)cc1)C(N)=O` [Substance III, Tyr--D-Ala--Phe--D-Ala--Tyr--NH2] (H-Y[dA]F[dA]Y-NH2), for which the “opiate-like activity remaining after incubation with α-chymotrypsin compared to zero-value” in series [2] is on record as “higher stability towards proteolytic enzymes (compared to II); also recorded: full opiate-like activity”. In the case of `C[C@@H](NC(=O)[C@H](Cc1ccccc1)NC(=O)[C@@H](C)NC(=O)[C@@H](N)Cc1ccc(O)cc1)C(=O)N[C@@H](Cc1ccccc1)C(N)=O` [Substance IV, Tyr--D-Ala--Phe--D-Ala--Phe--NH2] (H-Y[dA]F[dA]F-NH2), the “opiate-like activity remaining after incubation with α-chymotrypsin compared to zero-value” in series [2] is listed as “full opiate-like activity”.
